The term MIC denotes the lowest concentration that inhibits growth of the organism.

The results in this text go back to ChEMBL document CHEMBL1155753, “Verbalactone, a new macrocyclic dimer lactone from the roots of Verbascum undulatum with antibacterial activity” (2001).

In one test the test system is Escherichia coli. Put plainly: Antibacterial activity against Escherichia coli ATCC 25922 after 24 hrs by agar dilution method. The test is classed as functional. The conditions noted are these: ATCC 25922, 24 h. On the technique in general: In agar dilution, organisms are placed on agar that contains the substance at set levels.
The next test relates to Staphylococcus aureus. As to the kind of experiment: Antibacterial activity against Staphylococcus aureus ATCC 25923 after 24 hrs by agar dilution method. In kind it is functional. The conditions noted are these: ATCC 25923, 24 h.
The subject of another test is Pseudomonas aeruginosa. Put plainly: Antibacterial activity against Pseudomonas aeruginosa ATCC 27853 after 24 hrs by agar dilution method. The settings on record: ATCC 27853, 24 h. The test is classed as functional.
Another test relates to Klebsiella pneumoniae. As to the kind of experiment: Antibacterial activity against Klebsiella pneumoniae isolate after 24 hrs by agar dilution method. The test is classed as functional.
In test [1] the test system is Salmonella enterica subsp. enterica. Put plainly: Antibacterial activity against Salmonella enteritidis isolate after 24 hrs by agar dilution method. In kind it is functional, Salmonella enterica subsp. enterica serovar Enteritidis.
The test system of test [2] is Staphylococcus epidermidis. As to the kind of experiment: Antibacterial activity against Staphylococcus epidermidis isolate after 24 hrs by agar dilution method. The test is classed as functional.
A further test relates to Klebsiella aerogenes. As to the kind of experiment: Antibacterial activity against Enterobacter aerogenes isolate after 24 hrs by agar dilution method. The test is classed as functional.
In a further test the test system is Lacticaseibacillus casei. Put plainly: Antibacterial activity against Lactobacillus casei isolate after 24 hrs by agar dilution method. In kind it is functional.

SMILES strings stand for the structures. In brackets after ≈: the same amount, converted by molar mass.

On to `CCCCC[C@@H]1C[C@@H](O)CC(=O)O[C@H](CCCCC)C[C@@H](O)CC(=O)O1` [VERBALACTONE], for which the minimal inhibitory concentration (MIC) was 250 µg/mL (≈ 671 µM) with Escherichia coli; 62.5 µg/mL (≈ 168 µM) in the test with Staphylococcus aureus; 500 µg/mL (≈ 1340 µM) in the test on Pseudomonas aeruginosa; 250 µg/mL (≈ 671 µM) in the test with Klebsiella pneumoniae; 125 µg/mL (≈ 336 µM) in test [1]; 62.5 µg/mL (≈ 168 µM) in test [2]. Besides, the MIC with Klebsiella aerogenes was greater than 500 µg/mL; in the test on Lacticaseibacillus casei, greater than 125 µg/mL.
